What was measured:
Format in all cases: cell-based, human
[1] = system: SKOV-3 cells; assay: Targeted LC-MS analysis of lipid levels in inhibitor-treated cells; settings: compared to DMSO controls
Experimental: (§1) The following LC-MS conditions were used for analysis of cancer cell metabolomes. Cell pellets were harvested by scraping, isolated by centrifugation at 1,400×g, and dounce-homogenized in 4 mL of a 2:1:1 mixture of chloroform:methanol:Tris buffer (50 mM Tris*HCl, pH 8.0). Samples that were analyzed by targeted LC-MS were homogenized in the presence of the following synthetic standards: C15:0 MAG (50 pmol), C17:0 LPA (50 pmol), and 13C-C16:0 MAGE (25 pmol). Organic and aqueous layers were separated by centrifugation at 1,260×g for 5 min. The organic layer was then removed, dried under a stream of N2, and re-solubilized in 100 μL of chloroform, of which 30 μL was analyzed by LC-MS. Extraction of LPA was performed by acidifying the remaining aqueous layer to a final concentration of 5% formic acid, followed by the addition of 2 mL of chloroform. The mixture was vortexed, the organic layer removed, concentrated to dryness, and dissolved in 100 μL of chloroform, of which 30 μL was analyzed by LC-MS.
(§2) LC-MS analysis was performed using an Agilent 1100 LC-MSD SL instrument. […] Mobile phase A was composed of a 95:5 ratio of water:methanol and mobile phase B consisted of 2-propanol, methanol, and water in a 60:35:5 ratio. Solvent modifiers such as 0.1% formic acid and 0.1% ammonium hydroxide were used to assist ion formation as well as improve the LC resolution in both positive and negative ionization modes respectively. The flow rate for each run started at 0.1 mL/min for 5 min, to alleviate backpressure associated with injecting chloroform. The gradient started at 0% B and increased linearly to 100% B over the course of 40 min with a flow rate of 0.4 mL/min, followed by an isocratic gradient of 100% B for 7 min before equilibrating for 8 min at 0% B with a flow rate of 0.5 mL/min.
MS analysis was performed with an electrospray ionization (ESI) source. The capillary voltage was set to 3.0 kV and the fragmentor voltage to 100V. The drying gas temperature was 350° C., the drying gas flow rate was 10 L/min, and the nebulizer pressure was 35 psi. Untargeted data was collected using a mass range of 200-1000 Da and exported as common data format (.CDF) files for computational analysis. Differentially expressed metabolites between sample pairs were identified using the XCMS analyte profiling software (http://metlin/download) that aligns mass peaks from two LC-MS traces and quantifies the relative intensities of global metabolites (5). Significant inhibitor-sensitive peak changes were confirmed by manual quantification using the area under the peak normalized to total ion current. Targeted LC-MS measurements were made using selected ion monitoring (SIM). Peaks were quantified by measuring the area under the peak and normalized to an internal standard (C15:0 MAG) or endogenous lipid (palmitic acid). Absolute MAGE levels were estimated by comparison to a 13C-MAGE standard.
Human ovarian cancer cell lines were obtained form the National Cancer Institute's Developmental Therapeutics Program. The melanoma lines C8161 and MUM-2B were obtained form Mary Hendrix. Cells were maintained in RPMI medium 1640 with 10% (v/v) fetal calf serum at 37° C. in a humidified atmosphere of 5% CO2/95% air. At approximately 80% confluency, cells were trypsinized, counted with the aid of a hemocytometer, and 2.5×10^6 cells were plated in 6 cm dishes. 20 h after plating cells were washed twice with PBS and supplemented with serum free RPMI containing 0.5% BSA (Sigma)(BSA-RPMI) with AS115 (0.01-10 μM) or vehicle (DMSO) at 0.1%. After incubation for 4 h the cells were harvested and analyzed by ABPP or LC-MS.
By extension, the m/z 345 and 347 metabolites were interpreted to represent the C18:1 and C18:0 MAGEs, respectively. […] MAGE levels were measured by targeted LC-MS analysis of SKOV-3 cells treated with AS115 (5 μM) or DMSO for 4 h using a 13C-C16:0 MAGE internal standard. Values are represented as pmol/10^6 cells. […]

[2] = system: MUM-2B melanoma cells; assay: LC-MS MAGE lipid levels in inhibitor-treated melanoma cells; settings: compared to DMSO controls
Experimental: as §1, §2
(§3) MS analysis was performed with an electrospray ionization (ESI) source. […] Differentially expressed metabolites between sample pairs were identified using the XCMS analyte profiling software (http://metlin/download) that aligns mass peaks from two LC-MS traces and quantifies the relative intensities of global metabolites (5). Significant inhibitor-sensitive peak changes were confirmed by manual quantification using the area under the peak normalized to total ion current. […] Peaks were quantified by measuring the area under the peak and normalized to an internal standard (C15:0 MAG) or endogenous lipid (palmitic acid). […]
(§4) Human ovarian cancer cell lines were obtained form the National Cancer Institute's Developmental Therapeutics Program. […] At approximately 80% confluency, cells were trypsinized, counted with the aid of a hemocytometer, and 2.5×10^6 cells were plated in 6 cm dishes. […] After incubation for 4 h the cells were harvested and analyzed by ABPP or LC-MS. […]

[3] = system: C8161 melanoma cells; assay: as above; settings: compared to DMSO controls
Experimental: as §1, §2, §3, §4

[4] = system: shKIAA1363 cells; assay: Cell migration assay (Transwell) with shKIAA1363 cells; settings: concentrations up to 1 μM, 18 h
Experimental: Migration assays were performed in Transwell chambers with […] pore-sized membranes coated with 10 μg/ml collagen overnight at 4° C. (Corning). Twenty-four hours before the start of the migration assay, cancer cell lines were plated at concentration of 2.25×10^6 cells per 10 cm dish. At the start of the migration assay, cells were harvested by washing two times with PBS and then serum starved in medium containing 0.05% BSA for 4 hours. Serum starved cells were trypsinized, spun at 1400 rpm for 3 minutes, resuspended, and counted. Cells were diluted to a density of 100,000 cells/ml in medium contain 0.05% BSA, and then 250 μl were placed in the upper chamber of the transwells. Either DMSO, alkyl LPA (10 nM), alkyl LPC (10-1000 nM), or MAGE (10-1000 nM) in medium containing 0.05% BSA was added in the lower chamber, and cells were allowed to migrate for 18 h. The filters were then fixed and stained with Diff-Quik (Dade Behring). Cells that had not migrated through the chamber were removed with a cotton ball. The cells which migrated were counted at a magnification of 40× and from each migration chamber 6 fields were independently counted.
The decrease in tumorigenic potential of shKIAA1363 cells was not associated with a change in proliferation potential in vitro (FIG. 11). shKIAA1363 cells were, however, impaired in their in vitro migration capacity compared to control cells (FIG. 9B). […]

Compound	Levels of MAGE lipids [1]	Levels of MAGE lipids [2]	Levels of MAGE lipids [3]	Effect on cancer cell migration [4]
NC(=O)c1cccc(-c2cccc(OC(=O)NC3CCCCC3)c2)c1 [URB597, reference compound]	did not affect	did not affect	did not affect	
monoalkylglycerol ether [MAGE]				Neither MAGE nor alkyl-LPC impacted cancer cell migration
